Experimental data from patent US10106539B2, “Spiro-indolines for the treatment and prophylaxis of respiratory syncytial virus infection (RSV)” (REVIRAL LIMITED, priority 2014, dated 2018).

Experiments:
[1] = system: RSV A2 (PRNT1); assay: RSV plaque reduction assay, A2 (PRNT1), Vero cells; type: cell-based, respiratory syncytial virus; conditions: n = 4
Protocol: Plaque Reduction Assay: […] After an overnight incubation at 37° C. in a humidified 5% CO2 atmosphere, the monolayer of cells should be approximately 90% confluent. Antiviral compounds were titrated in pre-warmed Serum Free (SF) Optimem in a U-bottom 96 well plate. […] Media was then removed from cells and replaced with PBS (100 μl/well). RSV stock was thawed and diluted in SF Optimem media to 4000 PFU/mLl. An equal volume of virus was added to compounds on the titration plate. PBS was removed from cells which were then inoculated with the virus/compound solution (50 μL/well). Cells were incubated for 2 h in a 37° C.+5% CO2 humidified incubator to allow infection. […] Immunostaining Procedure: Media was removed from cells and the monolayer washed with PBS. Cells were fixed with ice cold 80% Acetone in PBS (100 μl/well) for 20 mins at −20° C. […] Blocking solution was removed and plates washed once with PBS-T. Primary antibody in blocking solution was added to plates (50 μl/well) and incubated for 1 h at 37° C. Plates were then washed 3 times with PBS-T. Secondary antibody in blocking solution was added to plates (50 μL/well) and incubated for 1 h at 37° C. in the dark. […] Plates were scanned on the Odyssey Imager (Li-Cor Biosciences) at a resolution of […], medium quality and level 5 intensity in the […]. Data Analysis: Images obtained were saved and plaque numbers counted with the aid of computer imaging software. EC50 values for compounds were derived from dose response curves [three variable log (inhibitor) vs response] obtained using Graphpad Prism software.

[2] = In vivo pharmacokinetics in rats (IV and PO); set-up: species or system male Sprague Dawley rats; conditions: male Sprague Dawley rats, 1 mg/kg (IV)
Protocol: The pharmacokinetics of compounds were studied in vivo in male Sprague Dawley rats at doses of 1 mg/kg (IV) and 10 mg/kg (PO).
Sprague Dawley rats were treated with experimental compounds via intravenous and oral administration. Three animals for each route of administration were used with serial blood sampling at ten time points post dosing of compound.
Animals were weighed and used if between 200-250 g. Serial blood samples were collected at 0.02, 0.08, 0.25, 0.50, 1, 2, 4, 6, 8 and 24 hours post dosing. […] Blood samples were delivered into an anticoagulant (sodium heparin) and centrifuged at 4° C. Plasma samples were subsequently stored frozen at less than −20° C. prior to analysis.
Following protein precipitation with acetonitrile, samples were analysed with tandem liquid chromatography/mass spectrometry using electrospray ionisation. A full matrix curve with internal standards was employed and PK parameters were calculated.
In a similar manner, oral administration was performed by gavage at doses of 5 or 10 mg/kg at a concentration of 5 mg/ml in 1% Methyl cellulose (Sigma M7140), 0.1% Tween 80 in water. Serial samples were taken as described above.
RV039 was administered at doses of 1 mg/kg (IV) and 5 mg/kg (PO).

[3] = Liver microsomal stability, rat; type: in vitro ADME; conditions: male, Sprague Dawley, read-out: Liver Microsomal Stability T1/2, rat
Protocol: (§1) Microsomal Incubation: Experimental Procedure
(§2) Pooled human liver microsomes (pooled male and female), pooled rat liver microsomes (male Sprague Dawley rats) and pooled dog liver microsomes (male Beagle dog) are purchased from a reputable commercial supplier and stored at −80° C. prior to use.
(§3) The final incubation volume is 50 μL. A control incubation is included for each compound tested where 0.1 M phosphate buffer pH 7.4 is added instead of NADPH (minus NADPH). Two control compounds are included with each species. All incubations are performed singularly for each test compound.
(§4) The reactions are stopped by transferring 25 μL of incubate to 50 μL methanol at the appropriate time points. The termination plates are centrifuged at 2,500 rpm for 20 min at 4° C. to precipitate the protein. Following protein precipitation, the sample supernatants are combined in cassettes of up to 4 compounds, internal standard is added and samples analysed by LC-MS/MS. From a plot of ln peak area ratio (compound peak area/internal standard peak area) against time, the gradient of the line is determined. Subsequently, half-life and intrinsic clearance are calculated

[4] = Liver microsomal stability, human; type: in vitro ADME; conditions: both sexes, pooled liver microsomes, pH 7.4, 3 μM compound, read-out: Liver Microsomal Stability T1/2, human
Protocol: as §1, §2
as §3, with “Microsomes (final protein concentration 0.5 mg/mL), 0.1 M phosphate buffer pH 7.4 and test compound (final substrate concentration 3 μM; final DMSO concentration 0.25%) are pre-incubated at 37° C. prior to the addition of NADPH (final concentration 1 mM) to initiate the reaction. The” for “The”
as §4, with “Compounds are incubated for 0, 5, 15, 30 and 45 min. The control (minus NADPH) is incubated for 45 min only. The reactions” for “The reactions”

[5] = Liver microsomal stability, dog; type: in vitro ADME; conditions: male, Beagle, pooled liver microsomes, pH 7.4, 3 μM compound, read-out: Liver Microsomal Stability T1/2, dog
Protocol: as §1, §2
as §3, with “Microsomes (final protein concentration 0.5 mg/mL), 0.1 M phosphate buffer pH 7.4 and test compound (final substrate concentration 3 μM; final DMSO concentration 0.25%) are pre-incubated at 37° C. prior to the addition of NADPH (final concentration 1 mM) to initiate the reaction. The” for “The”
as §4, with “Compounds are incubated for 0, 5, 15, 30 and 45 min. The control (minus NADPH) is incubated for 45 min only. The reactions” for “The reactions”

[6] = human respiratory syncytial virus, Vero

SMILES | IC50 [1] [nM] | Volume of distribution [2] | half-life at 3 μM ([3]; pH 7.4, rat liver microsomes, 3 μM compound) [h] | IC50 [1, 6] [nM] | half-life at 3 μM [4] [h] | half-life at 3 μM [5] [h] | half-life at 3 μM ([3]; pooled liver microsomes, pH 7.4, 3 μM compound) [h]
CC(C)CCn1c(CN2C(=O)C3(CC3)c3cccnc32)nc2cc(CN)ccc21 [Example 5, 1′-((5-(aminomethyl)-1-isopentyl-1H-benzo[d]imidazol-2-yl)methyl)[spirocyclopropane-1,3′-pyrrolo[2,3-b]pyridin]-2′(1′H)-one] | 5.3 | Example 5: 8.2 L/kg | – | – | – | – | –
NCc1ccc2c(c1)nc(CN1C(=O)C3(CC3)c3ccc(F)cc31)n2C1CCOCC1 [Example 7, 1′-((5-(aminomethyl)-1-(tetrahydro-2H-pyran-4-yl)-1H-benzo[d]imidazol-2-yl)methyl)-6′-fluorospiro[cyclopropane-1,3′-indolin]-2′-one] | – | – | 4.1 | 1.6 | 0.557 | 55.8 | –
CC(C)CCn1c(CN2C(=O)C3(CC3)c3ccncc32)nc2cc(CN)ccc21 [Example 6, 1′-((5-(aminomethyl)-1-isopentyl-1H-benzo[d]imidazol-2-yl)methyl)spiro[cyclopropane-1,3′-pyrrolo[2,3-c]pyridin]-2′(1′H)-one] | – | – | – | 2.3 | 3.82 | 18.3 | 2.08
NCc1ccc2c(c1)nc(CN1C(=O)C3(CC3)c3ccc(F)cc31)n2C1CCC(O)CC1 [Example 8, 1′-((5-(Aminomethyl)-1-((1R,4R)-4-hydroxycyclohexyl)-1H-benzo[d]imidazol-2-yl)methyl)-6′-fluorospiro[cyclopropane-1,3′-indolin]-2′-one] | 4.8 | – | – | – | – | – | –
